Literature values in patent publication US20060068015A1, “Solid dosage form comprising a fibrate and a statin” (priority 2003, published 2006).
Values belong to the molecule of their own block, whether it stands above or below them.

Assays:
[1] = for solubility in water: water / distilled water

SMILES: CC(C)(Oc1ccc(C(=O)c2ccc(Cl)cc2)cc1)C(=O)O [Fenofibric acid]
- elimination half-life (in vivo): about 20 hours

SMILES: CC[C@H](C)C(=O)O[C@H]1C[C@H](O)C=C2C=C[C@H](C)[C@H](CC[C@@H](O)C[C@@H](O)CC(=O)[O-])[C@H]21.[Na+] (relative stereo) [Pravastatin sodium, 1-naphthalene-heptanoic acid, 1,2,6,7,8,8a-hexahydro-(beta), (beta),6-trihydroxy-2-methyl-8-(2-methyl-1-oxobutoxy)-, monosodium salt, [1S-[1(alpha)((beta)S*,(beta)S*),2(alpha),6(alpha), 8(beta)(R*),8a(alpha)]]-]
- solubility in acetone ([1]; acetone): practically insoluble
- solubility in acetonitrile ([1]; acetonitrile): practically insoluble
- solubility in chloroform ([1]; chloroform): practically insoluble
- solubility in ether ([1]; ether): practically insoluble

SMILES: CC[C@H](C)C(=O)O[C@H]1C[C@H](O)C=C2C=C[C@H](C)[C@H](CC[C@@H](O)C[C@@H](O)CC(=O)O)[C@H]21 [Pravastatin]
- bioavailability (oral administration): about 30%
- solubility in water [1]: water-soluble

The remaining lines, values ahead:

- solubility in water [1]: poor water-solubility
SMILES: CC[C@H](C)C(=O)O[C@H]1C[C@@H](C)C=C2C=C[C@H](C)[C@H](CC[C@@H]3C[C@@H](O)CC(=O)O3)[C@H]21 [lovastatin]

- systemic availability of HMG-COA reductase inhibitory activity (oral administration): approximately 30%
SMILES: CC(C)c1c(C(=O)Nc2ccccc2)c(-c2ccccc2)c(-c2ccc(F)cc2)n1CC[C@@H](O)C[C@@H](O)CC(=O)O [Atorvastatin]

- solubility in water [1]: poor water-solubility
SMILES: O=C(O)C[C@H](O)C[C@H](O)/C=C/c1c(C2CC2)nc2ccccc2c1-c1ccc(F)cc1 [pitavastatin]

- solubility in water [1]: water-soluble
SMILES: CC(C)n1c(/C=C/C(O)CC(O)CC(=O)O)c(-c2ccc(F)cc2)c2ccccc21 (stereo not shown) [fluvastatin]

- bioavailability (oral administration): about 50%
- solubility in water [1]: poor water-solubility
SMILES: CC(C)c1nc(N(C)S(C)(=O)=O)nc(-c2ccc(F)cc2)c1/C=C/[C@@H](O)C[C@@H](O)CC(=O)O [Rosuvastatin]
